Measured values as given in US4000269A, “S-(α-substituted-arylmethylthio, -arylmethylsulfinyl, and -arylmethylsulfonyl)methyl phosphorus esters used as insecticides” (priority 1975, dated 1976).
Read-outs that look alike come from different tables or passages of the source.

What was measured:
Format in all cases: in vivo
[1] = tested on: Western Potato Leafhopper (Empoasca abrupta); test: G. Western Potato Leafhopper plant-dip test; conditions: 48 h, 2 days, read-out: Percent Mortality, Western Potato Leafhopper
Procedure: Sieva lima bean plants with the primary leaf expanded to 3 to 4 inches are dipped into 100 or 10 ppm. 50 % acetone/50 % water solutions and set in the hood to dry. A 1 -inch piece of the tip of a treated leaf is cut off and placed in a 4 -inch petri dish with a moist filter paper in the bottom. From 3 to 10 second-instar nymphs are tapped from the culture plants into the test dish and rapidly covered. Mortality counts are made after 2 days at 80° F., and 50 % R.H.

[2] = tested on: Boll Weevil (Anthonomus grandis); test: B. Boll Weevil leaf-dip test; conditions: 48 h, read-out: Percent Mortality, Boll Weevil
Procedure: (§1) Test compounds are prepared as 1000 ppm. solutions in 10 % acetone, 0.2 % Alrodyne 315 , and 89.8 % water. A tenfold dilution is made with 65 % acetone and 35 % water. The first or second true leaf of young cotton plants is dipped for 3 to 5 seconds in the test solution and placed in an exhaust hood to dry. When dry, each leaf is placed in a 4 -inch petri dish with a moist filter paper on the bottom. Ten adult boll weevils are removed from the stock culture and placed in the petri dish. The dishes are covered and held at 80° F. and 50 % R.H. After 2 days, mortality counts are made.

[3] = tested on: Mexican Bean Beetle (Epilachna varivestis); test: F. Mexican Bean Beetle leaf-dip test; conditions: 48 h, 2 days, read-out: Percent Mortality, Mexican Bean Beetle
Procedure: Compounds to be tested are made up as 100 or 10 ppm. solutions in 65 % acetone/35 % water. Sieva lima bean leaves are dipped in the test solution and set in the hood to dry. When dry, they are placed in 4 -inch petri dishes which have a moist filter paper in the bottom, and 10 third-instar bean beetles are added to each dish. The dishes are covered and held at 80° F., 60 % R.H. After 2 days, mortality counts and estimates of the amount of feeding are made. Compounds showing kills greater than 75 % are further tested at tenfold dilutions in 65 % acetone/35 % water.

[4] = tested on: Southern Armyworm (Prodenia eridania); test: D. Southern Armyworm leaf-dip test; conditions: Spodoptera eridania, 48 h, read-out: Percent Mortality, Southern Armyworm
Procedure: Compounds are tested at 1000 and 100 ppm. in solution or suspension in 65 % acetone/35 % water. Sieva lima bean primary leaves are dipped for 3 seconds in the test solution and set in a hood on a screen to dry. When dry, each leaf is placed in a 4 -inch petri dish which has a moist filter paper in the bottom and ten third-instar armyworm larvae about 3/8 inch long. The dishes are covered and held at 80° F., and 60 % R.H. After 2 days, mortality counts and estimates of the amount of feeding are made. Compounds showing partial kill and/or inhibition of feeding are held an extra day for further observations.

[5] = tested on: Two-spotted Spider Mite (Tetranychus urticae); test: E. Two-spotted Spider Mite plant-dip test; conditions: 48 h, read-out: Percent Mortality, Two-spotted Spider Mite; for mortality at 100 ppm: 2 days
Procedure: Sieva lima bean plants with primary leaves 3 to 4 inches long are infested with about 100 adult mites per leaf 4 hours before use in this test. The mite and egg infested plants are dipped for 3 seconds in the same solutions used in the aphid test, and the plants set in the hood to dry. They are held for 2 days at 80° F., 60% R.H., and the adult mite mortality estimated on one leaf under a steroscopic microscope. The other leaf is left on the plant an additional 5 days and then examined at 10 X power to estimate the kill of eggs and of newly hatched nymphs, giving a measure of ovicidal and residual action, respectively.

[6] = tested on: Malaria Mosquito (Anopheles quadrimaculatus); test: H. Malaria Mosquito Adult Test; conditions: 24 h, adults, 1 day, read-out: Percent Mortality, Malaria Mosquito
Procedure: Solutions of 65% acetone/35% water containing 10 ppm. of test compound are poured into wide-mouth 2-ounce jars, each containing a microscope slide. The slides are removed from the test solution with forceps and laid horizontally to dry on a wide-mouth 4-ounce bottle. When dry, they are placed in the same 4-ounce bottle and 10 4- to 5-day-old mosquitoes of mixed sexes are added to each bottle. A piece of cotton gauze held on by an elastic band serves as a lid, and wad of cotton soaked in 10% honey solution serves as food. Mortality counts are made after 1 day at 80° F., 50% R.H. (relative humidity) Data obtained with the above procedures are reported in Table II below.

[7] = tested on: Tarnished Plant Bug (Lygus lineolaris); test: A. Tarnished Plant Bug leaf-dip test; conditions: 48 h, read-out: Percent Mortality, Tarnished plant Bug
Procedure: as §1, with “The primary leaves” for “The first or second true leaf”, “of Sieva lima bean” for “of young cotton”, “plants are” for “plants is”, “test solutions” for “test solution”, “adult Lygus bugs” for “adult boll weevils”, “are aspirated” for “are removed”

Bean Aphid (Aphis fabae) = test: C. Bean Aphid spray test; conditions: 48 h, read-out: Percent Mortality, Bean Aphid
Procedure: Compounds are tested at 100 , 10 and 1 ppm. in solution or suspension in 65 % acetone/35 % water. Two-inch fiber pots each containing a nasturtium plant 2 inches high and infested with about 150 aphids 2 days earlier, are placed on a turntable (4 RPM) and sprayed for two revolutions with a No. 154 DeVilbiss Atomizer at 20 psi. air pressure. The spray tip is held about 6 inches from the plants, and the spray is directed so as to give complete coverage of the aphids and the plants. The sprayed plants are laid on their sides on white enamel trays. Mortality estimates are made after holding for 2 days at 70° F. and 50% R.H.

Row | Compound | mortality at 100 ppm [1] [%] | mortality at 100 ppm [2] [%] | mortality at 100 ppm [3] [%] | mortality at 1000 ppm [4] [%] | mortality at 100 ppm ([4]; 2 days) [%] | mortality at 100 ppm [5] [%] | mortality at 300 ppm [5] [%] | mortality at 10 ppm [6] [%] | mortality at 100 ppm [7] [%] | mortality at 1 ppm (Bean Aphid (Aphis fabae)) [%] | mortality at 10 ppm [1] [%] | mortality at 100 ppm ([2]; 100 ppm., 2 days) [%] | mortality at 1000 ppm ([4]; 1000 ppm., 2 days) [%] | mortality at 100 ppm ([7]; 100 ppm., 2 days) [%] | mortality at 1 ppm (Bean Aphid (Aphis fabae); 1 ppm., 2 days) [%] | mortality at 10 ppm (Bean Aphid (Aphis fabae); 2 days) [%] | mortality at 100 ppm (Bean Aphid (Aphis fabae); 2 days) [%] | mortality at 10 ppm [3] [%]
1 | COP(=S)(OC)SCSC(C)(C)c1cccc(Cl)c1Cl [drawing 12] | 100 | 0 | 60 | 100 | 0 | 0 | 0 | 90 | 0 | 75 |  |  |  |  |  |  |  | 
2 | CCOP(=S)(OCC)SCSC(C)(CC)c1ccccc1 (stereo not drawn) [drawing 14] | 100 |  | 0 |  | 0 | 0 | 50 | 70 |  |  | 0 | 0 | 100 | 0 | 100 | 100 | 100 | 
3 | CCOP(=S)(OCC)SCSC(CC)(CC)c1ccccc1 [drawing 15] | 0 |  | 90 |  | 0 |  | 0 | 0 |  |  |  | 0 | 100 | 0 | 0 | 100 | 100 | 0
4 | CCCSP(=O)(OCC)SCSC(C)(C)c1ccccc1 (stereo not drawn) [drawing 16] | 100 |  | 80 |  | 100 | 100 | 100 | 0 |  |  | 0 | 0 | 100 | 0 | 90 | 100 | 100 | 80
5 | CCOP(=S)(OCC)SCSC(C)(C)c1ccc(Cl)cc1 [drawing 18] | 100 |  | 100 |  | 100 | 100 | 100 | 75 |  |  | 100 | 0 | 100 | 0 | 90 | 100 | 100 | 40
6 | COP(=S)(OC)SCSC(C)(C)c1ccc(Br)cc1 [drawing 19] | 100 |  |  |  | 100 | 100 | 100 | 75 |  |  | 0 | 100 | 100 | 40 | 100 | 100 | 100 | 0
7 | CCOP(=S)(OCC)SCSC(C)(C)c1ccc(Cl)c(Cl)c1 [drawing 20] | 100 |  | 30 |  | 100 | 100 | 100 | 0 |  |  | 0 | 50 | 100 | 0 | 0 | 90 | 100 | 0
8 | COP(=S)(OC)SCSC(C)(C)c1ccc(Cl)c(Cl)c1 [drawing 21] | 100 |  | 30 |  | 100 | 100 | 100 | 67 |  |  | 0 | 70 | 100 | 40 | 98 | 100 | 100 | 0
9 | COP(=S)(OC)SCSC(C)(C)c1ccc(Cl)cc1 [drawing 22] | 100 |  | 50 |  | 100 | 100 | 100 | 100 |  |  | 0 | 100 | 100 | 0 | 100 | 100 | 100 | 0
10 | COP(=O)(SC)SCSC(C)(C)c1ccc(Cl)cc1 (stereo not drawn) [drawing 23] | 100 |  | 40 |  | 0 | 0 | 50 | 0 |  |  | 0 | 90 | 100 | 0 | 95 | 100 | 100 | 0
